Test results published in ChEMBL document CHEMBL3885881, “DrugMatrix”.

Species on record: Rattus norvegicus
Experiment: DrugMatrix - Regimen: Daily Repeat
Assay type: toxicity, organism-based, Sprague-Dawley
Design: regimen Daily Repeat, gender Male, age 6-8 weeks
Details: in vivo, po, route oral GAVAGE, vehicle 100 % WATER; for ABSOLUTE BASOPHIL / ABSOLUTE EOSINOPHIL / ABSOLUTE LYMPHOCYTE / ABSOLUTE MONOCYTE / ABSOLUTE SEGMENTED NEUTROPHIL / BASOPHIL / EOSINOPHIL / ERYTHROCYTE COUNT / HEMATOCRIT / HEMOGLOBIN / LEUKOCYTE COUNT / LYMPHOCYTE / MEAN CORPUSCULAR HEMOGLOBIN / MEAN CORPUSCULAR HEMOGLOBIN CONCENTRATION / MEAN CORPUSCULAR VOLUME / MONOCYTE / NEUTROPHIL / NUCLEATED RED BLOOD CELLS / PLATELET COUNT: tissue Blood; for ALANINE AMINOTRANSFERASE / ALKALINE PHOSPHATASE / ASPARTATE AMINOTRANSFERASE / BLOOD UREA NITROGEN / CARBON DIOXIDE / CHLORIDE / CHOLESTEROL / CREATINE PHOSPHOKINASE / CREATININE / GLUCOSE / LACTATE DEHYDROGENASE / LIPASE / PHOSPHORUS / POTASSIUM / SODIUM / TOTAL BILIRUBIN / TOTAL PROTEIN / URIC ACID: tissue Plasma
[1] = 22 mg/kg, 120 h, dose level Low, time 5 day
[2] = 320 mg/kg, 72 h, dose level High, time 3 day
[3] = 320 mg/kg, 120 h, dose level High, time 5 day

COc1ccc(C(CN(C)C)C2(O)CCCCC2)cc1 (stereo unspecified) [VENLAFAXINE]
ABSOLUTE BASOPHIL [1]: 0 CELLS/uL | ABSOLUTE EOSINOPHIL [1]: 0 CELLS/uL | ABSOLUTE LYMPHOCYTE [1]: 7105.33 CELLS/uL | ABSOLUTE MONOCYTE [1]: 102.33 CELLS/uL | ABSOLUTE SEGMENTED NEUTROPHIL [1]: 692.33 CELLS/uL | BASOPHIL [1]: 0% | EOSINOPHIL [1]: 0% | ERYTHROCYTE COUNT [1]: 5.16 x10E6/uL | HEMATOCRIT [1]: 32.4% | HEMOGLOBIN [1]: 12.8 G/DL | LEUKOCYTE COUNT [1]: 7.9 x10E3/uL | LYMPHOCYTE [1]: 90% | MEAN CORPUSCULAR HEMOGLOBIN [1]: 24.83 pg | MEAN CORPUSCULAR HEMOGLOBIN CONCENTRATION [1]: 39.5 G/DL | MEAN CORPUSCULAR VOLUME [1]: 62.73 fL | MONOCYTE [1]: 1.33% | NEUTROPHIL [1]: 8.67% | NUCLEATED RED BLOOD CELLS [1]: 0 /100WBC | PLATELET COUNT [1]: 1242 x10E3/uL | ALANINE AMINOTRANSFERASE [1]: 58.67 u/L | ALKALINE PHOSPHATASE [1]: 353 u/L | ASPARTATE AMINOTRANSFERASE [1]: 97.67 u/L | BLOOD UREA NITROGEN [1]: 15 mg/dL | CARBON DIOXIDE [1]: 29 mmol/L | CHLORIDE [1]: 106 MEQ/L | CHOLESTEROL [1]: 81 mg/dL | CREATINE PHOSPHOKINASE [1]: 155 u/L | CREATININE [1]: 0.18 mg/dL | GLUCOSE [1]: 132.33 mg/dL | LACTATE DEHYDROGENASE [1]: 132 u/L | LIPASE [1]: 9.67 u/L | PHOSPHORUS [1]: 11.27 mg/dL | POTASSIUM [1]: 6.7 MEQ/L | SODIUM [1]: 152.17 MEQ/L | TOTAL BILIRUBIN [1]: 0.17 mg/dL | TOTAL PROTEIN [1]: 6.63 G/DL | URIC ACID [1]: 1.17 mg/dL | ABSOLUTE BASOPHIL [2]: 0 CELLS/uL | ABSOLUTE EOSINOPHIL [2]: 0 CELLS/uL | ABSOLUTE LYMPHOCYTE [2]: 16169.33 CELLS/uL | ABSOLUTE MONOCYTE [2]: 308 CELLS/uL | ABSOLUTE SEGMENTED NEUTROPHIL [2]: 1489.33 CELLS/uL | BASOPHIL [2]: 0% | EOSINOPHIL [2]: 0% | ERYTHROCYTE COUNT [2]: 5.59 x10E6/uL | HEMATOCRIT [2]: 35.1% | HEMOGLOBIN [2]: 13.63 G/DL | LEUKOCYTE COUNT [2]: 17.97 x10E3/uL | LYMPHOCYTE [2]: 89.67% | MEAN CORPUSCULAR HEMOGLOBIN [2]: 24.4 pg | MEAN CORPUSCULAR HEMOGLOBIN CONCENTRATION [2]: 38.83 G/DL | MEAN CORPUSCULAR VOLUME [2]: 62.7 fL | MONOCYTE [2]: 1.67% | NEUTROPHIL [2]: 8.67% | NUCLEATED RED BLOOD CELLS [2]: 0 /100WBC | PLATELET COUNT [2]: 1276.67 x10E3/uL | ALANINE AMINOTRANSFERASE [2]: 53.67 u/L | ALKALINE PHOSPHATASE [2]: 355.33 u/L | ASPARTATE AMINOTRANSFERASE [2]: 109 u/L | BLOOD UREA NITROGEN [2]: 14.33 mg/dL | CARBON DIOXIDE [2]: 22.33 mmol/L | CHLORIDE [2]: 104 MEQ/L | CHOLESTEROL [2]: 67.67 mg/dL | CREATINE PHOSPHOKINASE [2]: 922.67 u/L | CREATININE [2]: 0.19 mg/dL | GLUCOSE [2]: 204 mg/dL | LACTATE DEHYDROGENASE [2]: 452.67 u/L | LIPASE [2]: 10 u/L | PHOSPHORUS [2]: 13.37 mg/dL | POTASSIUM [2]: 5.82 MEQ/L | SODIUM [2]: 147.33 MEQ/L | TOTAL BILIRUBIN [2]: 0.17 mg/dL | TOTAL PROTEIN [2]: 5.87 G/DL | URIC ACID [2]: 1.9 mg/dL | ABSOLUTE BASOPHIL [3]: 0 CELLS/uL | ABSOLUTE EOSINOPHIL [3]: 0 CELLS/uL | ABSOLUTE LYMPHOCYTE [3]: 15088.33 CELLS/uL | ABSOLUTE MONOCYTE [3]: 152.33 CELLS/uL | ABSOLUTE SEGMENTED NEUTROPHIL [3]: 1792.67 CELLS/uL | BASOPHIL [3]: 0% | EOSINOPHIL [3]: 0% | ERYTHROCYTE COUNT [3]: 5.64 x10E6/uL | HEMATOCRIT [3]: 34.3% | HEMOGLOBIN [3]: 13.5 G/DL | LEUKOCYTE COUNT [3]: 17.03 x10E3/uL | LYMPHOCYTE [3]: 88.33% | MEAN CORPUSCULAR HEMOGLOBIN [3]: 23.93 pg | MEAN CORPUSCULAR HEMOGLOBIN CONCENTRATION [3]: 39.37 G/DL | MEAN CORPUSCULAR VOLUME [3]: 60.83 fL | MONOCYTE [3]: 1% | NEUTROPHIL [3]: 10.67% | NUCLEATED RED BLOOD CELLS [3]: 0 /100WBC | PLATELET COUNT [3]: 1189 x10E3/uL | ALANINE AMINOTRANSFERASE [3]: 58.33 u/L | ALKALINE PHOSPHATASE [3]: 429.33 u/L | ASPARTATE AMINOTRANSFERASE [3]: 79.33 u/L | BLOOD UREA NITROGEN [3]: 16.67 mg/dL | CARBON DIOXIDE [3]: 25 mmol/L | CHLORIDE [3]: 106 MEQ/L | CHOLESTEROL [3]: 72.33 mg/dL | CREATINE PHOSPHOKINASE [3]: 133.33 u/L | CREATININE [3]: 0.2 mg/dL | GLUCOSE [3]: 162.33 mg/dL | LACTATE DEHYDROGENASE [3]: 100 u/L | LIPASE [3]: 10 u/L | PHOSPHORUS [3]: 13.67 mg/dL | POTASSIUM [3]: 6.24 MEQ/L | SODIUM [3]: 150.03 MEQ/L | TOTAL BILIRUBIN [3]: 0.13 mg/dL | TOTAL PROTEIN [3]: 5.73 G/DL | URIC ACID [3]: 1.4 mg/dL
